As usually defined, the viability is a read-out of living cells in per cent, often relative to untreated cells.

The data set can be described thus: MTT assay for cell viability testing. The settings on record: rat; H9C2 cells, 48 hours treatment at the concentrations of Table 3 (0.4 to 25 µg/ml); DMSO group = 100%; Figure 1. Type of data set: cell-based, rats. The method, then: 1.1: cell culture of H9C2 cell line
H9C2 cell line is a cardiac myoblast derived from the rats and is purchased from Food Industry Research and Development Institute, Taiwan. The culture medium is 90% (v/v) Dulbecco's modified Eagle's medium with 4 mM L-glutamine (Gibco™, Cat.12800017) adjusted to contain 4.5g/L glucose and 1.5g/L sodium bicarbonate (Sigma, Cat.S5761) and 10% (v/v) fetal bovine serum (Gibco™, Cat.10437028). Incubate at 37°C in a 5% (v/v) CO2 in air atmosphere.
1.2: MTT assay for cell viability testing
In order to find out the feasible concentration of compounds without cytotoxicity, cells was cultured to 90% confluency and cells were seeded in a 24-well plate at a concentration of 1.5*10^4 cell/well. […] After washing with PBS buffer (phosphate buffered saline), 0.5 mg/ ml of MTT (Thiazolyl Blue Tetrazolium Bromide; Sigma, Cat.M2128) was added and incubate the 24-well plate at 37°C for 4 hours. […] Then the supernatant was removed and 200 µL DMSO was added to dissolve the crystal. Mix each sample again using a pipette and read absorbance at 570 nm (the values are averages of triplicate). The value of the DMSO group is 100% to represent that the cell viability is 100%.
For orientation: Tetrazolium assays rely on reduction of a dye to a coloured formazan, in cell work by metabolically active cells.
Take `O=C(O)/C=C/c1ccc(OC(=O)CCCC(=O)O)cc1` [Compound 1]: the viability at 48 h was 80 to 120%.

On to `O=C(O)/C=C/c1ccc(OC(=O)CCCC(=O)O)c(O)c1` [Compound 2], for which the viability at 48 h is 80 to 120%.

Regarding `O=C(O)/C=C/c1ccc(OC(=O)CCCC(=O)O)c(OC(=O)CCCC(=O)O)c1` [Compound 3], the viability at 48 h lay in the range of 80 to 120%.

With `O=C(O)/C=C/c1ccc(OC(=O)CCCCC(=O)O)cc1` [Compound 4], the viability at 48 h was in the range of 80 to 120%.

For the compound `COC(=O)CCCCC(=O)Oc1ccc(/C=C/C(=O)O)cc1` [Compound 5], the viability at 48 h was 80 to 120%.

As to `COC(=O)CCCCC(=O)Oc1ccc(/C=C/C(=O)O)cc1OC(=O)CCCCC(=O)OC` [Compound 6], the viability at 48 h lay within 80 to 120%.

Consider `CC(=O)Oc1ccccc1C(=O)Oc1ccc(/C=C/C(=O)O)cc1` [Compound 7], for which the viability at 48 h was in the range of 80 to 120%.

With `CC(=O)Oc1ccccc1C(=O)Oc1ccc(/C=C/C(=O)O)cc1O` [Compound 8], the viability at 48 h fell in the range of 80 to 120%.

Take `O=C(O)/C=C/c1ccc(OC(=O)Cc2cccc(Cl)c2)cc1` [Compound 9]: the viability at 48 h lay in the range of 80 to 120%.

Turning to `O=C(O)/C=C/c1ccc(OC(=O)Cc2cccc(Cl)c2)c(OC(=O)Cc2cccc(Cl)c2)c1` [Compound 10], the viability at 48 h was in the range of 80 to 120%.

On to `COC(=O)/C=C/c1ccc(OC(=O)Cc2cccc(Cl)c2)c(OC(=O)Cc2cccc(Cl)c2)c1` [Compound 11], for which the viability at 48 h fell in the range of 80 to 120%.

On to `CC(C)(C)OC(=O)NCCCC(=O)Oc1ccc(/C=C/C(=O)O)cc1OC(=O)CCCNC(=O)OC(C)(C)C` [Compound 12], for which the viability at 48 h fell in the range of 80 to 120%.

As to `O=C(O)/C=C/c1ccc(NC(=O)CCCC(=O)O)cc1` [Compound 13], the viability at 48 h fell in the range of 80 to 120%.

As for `COC(=O)/C=C/C(=O)Nc1ccc(/C=C/C(=O)O)cc1` [Compound 14], the viability at 48 h was in the range of 80 to 120%.

As for `CC(=O)Oc1ccccc1C(=O)N(C(=O)c1ccccc1OC(C)=O)c1ccc(/C=C/C(=O)O)cc1` [Compound 15], the viability at 48 h lay in the range of 80 to 120%.

On to `COC(=O)/C=C/c1ccccc1` [Compound 17], for which the viability at 48 h is 80 to 120%.

As for `COC(=O)/C=C/c1ccc(O)c(O)c1` [Compound 18], the viability at 48 h lay within 80 to 120%.

For the compound `O=C(/C=C/c1ccccc1)OCc1ccc(O)cc1` [Compound 21], the viability at 48 h was 80 to 120%.

For the compound `O=C(O)/C=C/c1ccc(O)cc1O` [Compound 24], the viability at 48 h was 80 to 120%.

With `CC(=O)C(=O)Oc1ccc(/C=C/C(=O)O)cc1` [Compound 27], the viability at 48 h fell in the range of 80 to 120%.

For the compound `CC(=O)Oc1ccc(/C=C/C(=O)O)cc1` [Compound 28], the viability at 48 h fell in the range of 80 to 120%.

In the case of `COC(=O)/C=C/c1ccc(OC(=O)c2ccccc2OC(C)=O)c(OC(=O)c2ccccc2OC(C)=O)c1` [Compound 29], the viability at 48 h was in the range of 80 to 120%.

As for `O=C(O)/C=C/c1ccc(OC(=O)c2cccnc2)cc1` [Compound 30], the viability at 48 h was in the range of 80 to 120%.

Consider `Nc1ccc(/C=C/C(=O)O)cc1` [Compound 31], for which the viability at 48 h is 80 to 120%.

In the case of `O=C(O)/C=C/C(=O)Nc1ccc(/C=C/C(=O)O)cc1` [Compound 32], the viability at 48 h was in the range of 80 to 120%.

For `O=C(O)/C=C/c1ccc(NC(=O)c2ccccc2O)cc1` [Compound 33], the viability at 48 h fell in the range of 80 to 120%.

`O=C(/C=C/c1ccc2c(c1)OCO2)Nc1ccc(O)cc1` [Compound 34]: the viability at 48 h lay in the range of 80 to 120%.

As for `Cc1ccc(/C=C/C(=O)c2cccc(NC(=O)/C=C/c3ccc4c(c3)OCO4)c2)s1` [Compound 35], the viability at 48 h fell in the range of 80 to 120%.

As to `O=C(O)/C=C/c1ccncc1` [Compound 36], the viability at 48 h was 80 to 120%.

As to `O=C(O)/C=C/c1cccnc1` [Compound 37], the viability at 48 h was 80 to 120%.

In the case of `O=C(O)/C=C/c1cccs1` [Compound 38], the viability at 48 h lay within 80 to 120%.

For `O=C(O)/C=C/c1ccsc1` [Compound 39], the viability at 48 h lay in the range of 80 to 120%.

Regarding `C=CCOc1ccc(/C=C/C(=O)c2sccc2N)c(OCC=C)c1` [Compound 40], the viability at 48 h is 80 to 120%.

Consider `O=C(/C=C/c1ccsc1)c1ccc(O)cc1` [Compound 41], for which the viability at 48 h lay in the range of 80 to 120%.

Consider `O=C(/C=C/c1ccc2c(c1)OCO2)n1cccc1` [Compound 42], for which the viability at 48 h is 80 to 120%.

For the compound `O=C(/C=C/c1ccccn1)c1ccccn1` [Compound 43], the viability at 48 h fell in the range of 80 to 120%.

`Cc1ccc(/C=C/C(=O)c2sc(N)nc2C)s1` [Compound 44]: the viability at 48 h lay in the range of 80 to 120%.

For `O=C(/C=C/c1ccc(O)c(O)c1)O[C@H](Cc1ccc(O)c(O)c1)C(=O)O` [Compound 46], the viability at 48 h is 80 to 120%.
